According to patent US20040091407A1, “Novel process for preparing crystalline particles” (priority 2000, published 2004):

Assay: Particle size measurement using a Malvern Particle Sizer S
Type: physicochemical
Conditions: crystalline particles of the calcium salt monohydrate prepared by sonocrystallisation
Procedure: Particle size of the two samples were measured using a Malvern Particle Sizer S. The (v0.5) values are as shown below: […]

Compound: C/C(=C/C(=O)c1ccccc1)N[C@@H](Cc1ccc(OCCc2nc(-c3ccccc3)oc2C)cc1)C(=O)[O-].C/C(=C/C(=O)c1ccccc1)N[C@@H](Cc1ccc(OCCc2nc(-c3ccccc3)oc2C)cc1)C(=O)[O-].[Ca+2] [Sample 1, calcium salt of (2S)-2-{[(Z)-1-methyl-3-oxo-3-phenyl-1-propenyl]amino}-3-{4-[2-(5-methyl-2-phenyl-1,3-oxazol-4-yl)ethoxy]phenyl}propanoic acid]
- D(v,0.5) particle size: 32.2 microns

Compound: C/C(=C/C(=O)c1ccccc1)N[C@@H](Cc1ccc(OCCc2nc(-c3ccccc3)oc2C)cc1)C(=O)[O-].C/C(=C/C(=O)c1ccccc1)N[C@@H](Cc1ccc(OCCc2nc(-c3ccccc3)oc2C)cc1)C(=O)[O-].[Ca+2] [Sample 2, calcium salt of (2S)-2-{[(Z)-1-methyl-3-oxo-3-phenyl-1-propenyl]amino}-3-{4-[2-(5-methyl-2-phenyl-1,3-oxazol-4-yl)ethoxy]phenyl}propanoic acid]
- D(v,0.5) particle size: 42.3 microns
